Data published in patent publication US20250230165A1, “HETEROCYCLIC COMPOUNDS FOR USE IN THE TREATMENT OF CANCER” (ARTIOS PHARMA LIMITED, priority 2021, published 2025).

Biological target: T1, Human Polθ polymerase domain (aa1820-2590) (Homo sapiens, UniProt O75417)
T1 construct: Human Polθ polymerase domain (aa1820-2590) was expressed in E. coli; made in house; host or cells: E. coli
T1 sequence (O75417 1820-2590): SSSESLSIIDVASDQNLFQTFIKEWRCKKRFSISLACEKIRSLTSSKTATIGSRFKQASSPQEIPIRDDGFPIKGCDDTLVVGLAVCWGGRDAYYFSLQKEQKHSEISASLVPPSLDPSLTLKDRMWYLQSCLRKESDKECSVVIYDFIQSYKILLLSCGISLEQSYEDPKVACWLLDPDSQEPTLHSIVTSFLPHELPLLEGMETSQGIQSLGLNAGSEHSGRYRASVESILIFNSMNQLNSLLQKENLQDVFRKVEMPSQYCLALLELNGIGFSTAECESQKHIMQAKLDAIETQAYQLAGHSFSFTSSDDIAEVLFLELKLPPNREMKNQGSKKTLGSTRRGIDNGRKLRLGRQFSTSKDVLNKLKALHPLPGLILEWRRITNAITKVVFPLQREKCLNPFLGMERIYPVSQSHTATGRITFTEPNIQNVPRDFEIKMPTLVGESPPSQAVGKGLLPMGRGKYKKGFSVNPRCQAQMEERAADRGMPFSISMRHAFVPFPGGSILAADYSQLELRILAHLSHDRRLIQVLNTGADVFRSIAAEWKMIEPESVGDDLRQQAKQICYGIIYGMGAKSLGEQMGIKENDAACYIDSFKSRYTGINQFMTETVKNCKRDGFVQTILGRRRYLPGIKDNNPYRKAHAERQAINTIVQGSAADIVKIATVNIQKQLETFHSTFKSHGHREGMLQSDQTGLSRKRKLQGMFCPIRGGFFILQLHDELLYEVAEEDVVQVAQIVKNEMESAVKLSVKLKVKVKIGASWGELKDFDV
Assay: Polθ Polymerase Domain Kinact/KI Assay (PicoGreen)
Assay type: biochemical
Details: 0.8 nM Polθ, 100 nM DNA substrate, kobs vs [I] fit for 2-step covalent inhibitor
Procedure, shortened: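 Covalent inhibitors were tested against E. coli-expressed enzyme (0.8 nM final) with 100 nM annealed DNA substrate and […] in Tris pH 7.5 buffer, 1% DMSO. Reactions were EDTA-quenched over a 0–60 min time course and product DNA detected by PicoGreen fluorescence.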

Compound	Kinact/Kl [M⁻¹ s⁻¹]
C=C(CN(C)C)C(=O)N1CC(OCCCN2C[C@H]3CC(=O)N(c4cc(C(F)(F)F)cc(C)n4)[C@@H]3C(=O)Nc3cccc(C)c32)C1 [Example 191, (3aR,11aS)-5-(3-((1-(2-((dimethyl-amino)methyl)-acryloyl)azetidin-3-yl)oxy)propyl)-6-methyl-1-(6-methyl-4-(trifluoro-methyl)pyridin-2-yl)-1,3a,4,5,10, 11a-hexahydro-2H-benzo[b]pyr-rolo[2,3-f][1,4] diazocine-2, 11(3H)-dione]	1.4e+06
C=C(CN(C)C)C(=O)N1CC(CCCCN2C[C@H]3CC(=O)N(c4cc(C(F)(F)F)cc(C)n4)[C@@H]3C(=O)Nc3cccc(C)c32)C1 [Example 192, (3aR,11aS)-5-(4-(1-(2-((dimethyl-amino)methyl)-acryloyl)azetidin-3-yl)butyl)-6-meth-yl-1-(6-methyl-4-(trifluoromethyl)-pyridin-2-yl)-1,3a,4,5,10,11a-hexahydro-2H-benzo[b]pyrrolo [2,3-f][1,4]diazo-cine-2,11(3H)-dione]	2.18e+06
C=C(CN1CCN(C)CC1)C(=O)N1CC(COCCN2C[C@H]3CC(=O)N(c4cc(C(F)(F)F)cc(C)n4)[C@@H]3C(=O)N(C)c3cccc(C)c32)C1 [Example 193, (3aR,11aS)-6,10-dimethyl-1-(6-methyl-4-(trifluoro-methyl)pyridin-2-yl)-5-(2-((1-(2-((4-methylpiperazin-1-yl)methyl)acrylo-yl)azetidin-3-yl)-methoxy)ethyl)-1,3a,4,5,10,11a-hexahydro-2H-benzo[b]pyrrolo [2,3-f][1,4]diazo-cine-2,11(3H)-dione]	2.58e+06
C/C=C(\CN(C)C)C(=O)N1CC(OCCCN2C[C@H]3CC(=O)N(c4cc(C(F)(F)F)cc(C)n4)[C@@H]3C(=O)N(C)c3cccc(C)c32)C1 [Example 194, (3aR,11aS)-5-(3-((1-((E)-2-((dimeth-ylamino)methyl)-but-2-enoyl)azeti-din-3-yl)oxy)prop-yl)-6,10-dimethyl-1-(6-methyl-4-(trifluoromethyl)-pyridin-2-yl)-1,3a,4,5,10,11a-hexahydro-2H-benzo[b]pyrrolo [2,3-f][1,4]diazo-cine-2,11(3H)-dione]	4.38e+06
C/C=C(\CN(C)C)C(=O)N1CC(c2ccc(CN3C[C@H]4CC(=O)N(c5cc(C(F)(F)F)cc(C)n5)[C@@H]4C(=O)N(C)c4cccc(C)c43)cc2)C1 [Example 195, (3aR,11aS)-5-(4-(1-((E)-2-((dimeth-ylamino)methyl)-but-2-enoyl)azeti-din-3-yl)benzyl)-6,10-dimethyl-1-(6-methyl-4-(tri-fluoromethyl)pyr-idin-2-yl)-1,3a,4,5,10,11a-hexa-hydro-2H-benzo [b]pyrrolo[2,3-f] [1,4]diazocine-2,11(3H)-dione]	5.22e+06
Cc1cc(C(F)(F)F)cc(N2C(=O)C[C@@H]3CN(CCCOC4CN(C(=O)C5=CCCN(C)C5)C4)c4c(C)cccc4N(C)C(=O)[C@H]32)n1 [Example 196, (3aR,11aS)-6,10-dimethyl-5-(3-((1-(1-methyl-1,2,5,6-tetrahydropyridine-3-carbonyl)azeti-din-3-yl)oxy)prop-yl)-1-(6-methyl-4-(trifluoromethyl)-pyridin-2-yl)-1,3a,4,5,10,11a-hexahydro-2H-benzo[b]pyrrolo [2,3-f][1,4]diazo-cine-2,11(3H)-dione]	2.06e+06
Cc1cc(C(F)(F)F)cc(N2C(=O)C[C@@H]3CN(CCOCC4CN(C(=O)C5=CCCN(C)C5)C4)c4c(C)cccc4N(C)C(=O)[C@H]32)n1 [Example 197, (3aR,11aS)-6,10-dimethyl-5-(2-((1-(1-methyl-1,2,5,6-tetrahydropyridine-3-carbonyl)azeti-din-3-yl)methoxy)-ethyl)-1-(6-methyl-4-(trifluoromethyl)-pyridin-2-yl)-1,3a, 4,5,10,11a-hexa-hydro-2H-benzo [b]pyrrolo[2,3-f] [1,4]diazocine-2,11(3H)-dione]	1.67e+06
C#CC(=O)N1CCn2nc(CN3C[C@H]4CC(=O)N(c5cc(C(F)(F)F)cc(C)n5)[C@@H]4C(=O)N(C)c4cccc(C)c43)cc2C1 [Example 198, (3aR,11aS)-6,10-dimethyl-1-(6-methyl-4-(trifluoro-methyl)pyridin-2-yl)-5-((5-propiolo-yl-4,5,6,7-tetra-hydropyrazolo-[1,5-a]pyrazin-2-yl)methyl)-1,3a,4,5, 10,11a-hexahydro-2H-benzo[b]pyr-rolo[2,3-f][1,4] diazocine-2,11(3H)-dione]	700000

Now from value to molecule:

Kinact/Kl [M⁻¹ s⁻¹]	Compound
1.33e+06	C=C(CN(C)C)C(=O)NC12CC(CN3C[C@H]4CC(=O)N(c5cc(C(F)(F)F)cc(C)n5)[C@@H]4C(=O)N(C)c4cccc(C)c43)(C1)C2 [Example 184, N-(3-(((3aR,11aS)-6,10-dimethyl-1-(6-methyl-4-(trifluoromethyl)-pyridin-2-yl)-2,11-dioxo-1,2,3,3a,4, 10,11,11a-octa-hydro-5H-benzo [b]pyrrolo[2,3-f] [1,4]diazocin-5-yl)methyl)bicyclo [1.1.1]pentan-1-yl)-2-((dimethyl-amino)methyl)-acrylamide]
1.27e+06	C=C(CN(C)C)C(=O)NCC12CC(CN3C[C@H]4CC(=O)N(c5cc(C(F)(F)F)cc(C)n5)[C@@H]4C(=O)N(C)c4cccc(C)c43)(C1)C2 [Example 185, N-((3-(((3aR,11aS)-6,10-dimethyl-1-(6-methyl-4-(trifluoromethyl)-pyridin-2-yl)-2,11-dioxo-1,2,3,3a,4, 10,11,11a-octa-hydro-5H-benzo [b]pyrrolo[2,3-f] [1,4]diazocin-5-yl)methyl)bicyclo [1.1.1]pentan-1-yl)methyl)-2-((dimethylamino)-methyl)acrylamide]
3.23e+06	C=C(CN(C)C)C(=O)N1CC(c2ccc(CN3C[C@H]4CC(=O)N(c5cc(C(F)(F)F)cc(C)n5)[C@@H]4C(=O)N(C)c4cccc(C)c43)cc2)C1 [Example 186, (3aR,11aS)-5-(4-(1-(2-((dimethyl-amino)methyl)-acryloyl)azetidin-3-yl)benzyl)-6,10-dimethyl-1-(6-methyl-4-(trifluoro-methyl)pyridin-2-yl)-1,3a,4,5,10,11a-hexahydro-2H-benzo[b]pyrrolo [2,3-f][1,4]diazo-cine-2,11(3H)-dione]
1.41e+06	C=C(CN(C)C)C(=O)N1CC(c2cc(CN3C[C@H]4CC(=O)N(c5cc(C(F)(F)F)cc(C)n5)[C@@H]4C(=O)N(C)c4cccc(C)c43)ccc2F)C1 [Example 187, (3aR,11aS)-5-(3-(1-(2-((dimethyl-amino)methyl)-acryloyl)azetidin-3-yl)-4-fluorobenz-yl)-6,10-dimethyl-1-(6-methyl-4-(trifluoromethyl)-pyridin-2-yl)-1,3a,4,5,10,11a-hexahydro-2H-benzo[b]pyrrolo [2,3-f][1,4]diazo-cine-2,11(3H)-dione]
3.35e+06	C=C(CN(C)C)C(=O)NCc1ccc(CN2C[C@H]3CC(=O)N(c4cc(C(F)(F)F)cc(C)n4)[C@@H]3C(=O)N(C)c3cccc(C)c32)cc1 [Example 189, N-(4-(((3aR,11aS)-6,10-dimethyl-1-(6-methyl-4-(trifluoromethyl)-pyridin-2-yl)-2,11-dioxo-1,2,3,3a,4, 10,11,11a-octa-hydro-5H-benzo [b]pyrrolo[2,3-f] [1,4]diazocin-5-yl)-methyl)benzyl)-2-((dimethylamino)-methyl)acrylamide]
2.93e+06	C=C(CN(C)C)C(=O)NCc1ccc(CN2C[C@H]3CC(=O)N(c4cc(C(F)(F)F)cc(C)n4)[C@@H]3C(=O)N(C)c3cccc(C)c32)cn1 [Example 190, N-((5-(((3aR,11aS)-6,10-dimethyl-1-(6-methyl-4-(trifluoro-methyl)pyridin-2-yl)-2,11-dioxo-1,2,3,3a,4,10,11, 11a-octahydro-5H-benzo[b]pyrrolo [2,3-f][1,4]diazo-cin-5-yl)methyl)-pyridin-2-yl)meth-yl)-2-((dimethyl-amino)methyl)-acrylamide]
690000	C#CC(=O)NC12CC(CN3C[C@H]4CC(=O)N(c5cc(C(F)(F)F)cc(C)n5)[C@@H]4C(=O)N(C)c4cccc(C)c43)(C1)C2 [Example 200, N-(3-(((3aR,11aS)-6,10-dimethyl-1-(6-methyl-4-(tri-fluoromethyl)pyri-din-2-yl)-2,11-dioxo-1,2,3,3a,4, 10,11,11a-octa-hydro-5H-benzo[b]pyrrolo[2,3-f][1,4]diazocin-5-yl)-methyl)bicyclo [1.1.1]pentan-1-yl)propiolamide]
